Assay [1] deals with Human promyelocytic leukemia (HL60) cells. As to the kind of experiment: HL-60 cell differentiation (nitro blue tetrazolium reduction). It is filed as cell-based. Particulars: 4 days, FIG. 2. As to the method: The study drugs were dissolved in ethanol and the concentrations determined using UV spectrophotometry. Serial dilutions were prepared so that a range of drug concentrations could be tested without changing the final concentration of ethanol (≦0.2%) present in the cell cultures.
Human promyelocytic leukemia (HL60) cells were grown in RPMI-1640 medium containing 10% fetal bovine serum. The cells were incubated at 37° C. in the presence of 5% CO2.
HL60 cells were plated at 1.2×10^5 cells/ml. Eighteen hours after plating, cells in duplicate were treated with drug. Four days later, the cells were harvested and a nitro blue tetrazolium reduction assay was performed (Collins et al., 1979; J. Exp. Med. 149:969-974). The percentage of differentiated cells was determined by counting a total of 200 cells and recording the number that contained intracellular black-blue formazan deposits. Verification of differentiation to monocytic cells was determined by measuring phagocytic activity (data not shown).

For assay [2], the system named is 24-hydroxylase (24Ohase) gene promoter. Put plainly: In vitro transcription assay (luciferase reporter) in ROS 17/2.8 (bone) cells. Format: cell-based. The settings on record: ROS 17/2.8 cells, 24Ohase promoter-luciferase, 16 h; FIG. 3; read-out: EC50, transcriptional activity in bone cells. As to the method: Transcription activity was measured in ROS 17/2.8 (bone) cells that were stably transfected with a 24-hydroxylase (24Ohase) gene promoter upstream of a luciferase reporter gene (Arbour et al., 1998). Cells were given a range of doses. Sixteen hours after dosing the cells were harvested and luciferase activities were measured using a luminometer.
RLU=relative luciferase units.
On the technique in general: A reporter such as luciferase makes a cellular process visible.

Assay [3] in a line: Bone calcium mobilization (serum calcium) in vitamin D-deficient rats. Particulars: 0.02% Ca diet. It is filed as in vivo, Sprague-Dawley rats. As to the method: (§1) Male, weanling Sprague-Dawley rats were placed on Diet 11 (0.47% Ca)+AEK for one week followed by Diet 11 (0.02% Ca)+AEK for 3 weeks. The rats were then switched to the same diet containing 0.47% Ca for one week followed by two weeks on the same diet containing 0.02% Ca. Dose administration began during the last week on 0.02% calcium diet. Four consecutive ip doses were given approximately 24 hours apart. Twenty-four hours after the last dose, blood was collected from the severed neck and the concentration of serum calcium determined by atomic absorption spectrometry as a measure of bone calcium mobilization. The first 10 cm of the intestine was also collected for intestinal calcium transport analysis using the everted gut sac method.

Assay [4] can be described thus: Intestinal calcium transport, everted gut sac method, in vitamin D-deficient rats. Format: in vivo, Sprague-Dawley rats. The settings on record: FIG. 6. As to the method: as §1
Assay [5] deals with T1, full-length recombinant rat vitamin D receptor (Rattus norvegicus, UniProt P13053).
T1 construct: Full-length recombinant rat receptor was expressed in E. coli; histidine tag (C); made in house; host or cells: E. coli BL21 (DE3) Codon Plus RIL
T1 sequence (P13053 1-423): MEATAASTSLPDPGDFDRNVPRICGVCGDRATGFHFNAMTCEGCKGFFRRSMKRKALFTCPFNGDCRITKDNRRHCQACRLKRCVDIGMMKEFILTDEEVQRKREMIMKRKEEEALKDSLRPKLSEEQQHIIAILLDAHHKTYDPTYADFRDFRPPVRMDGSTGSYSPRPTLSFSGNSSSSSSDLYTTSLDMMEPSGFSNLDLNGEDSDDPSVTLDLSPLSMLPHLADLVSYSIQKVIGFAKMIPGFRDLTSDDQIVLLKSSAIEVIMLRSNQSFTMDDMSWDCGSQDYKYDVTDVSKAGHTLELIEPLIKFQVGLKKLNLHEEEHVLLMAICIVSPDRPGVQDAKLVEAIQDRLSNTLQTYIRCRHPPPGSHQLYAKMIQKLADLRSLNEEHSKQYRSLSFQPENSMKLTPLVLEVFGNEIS
As to the kind of experiment: Vitamin D receptor competitive binding with [3H]-1,25(OH)2D3. Particulars: full-length recombinant rat VDR; FIG. 1; read-out: Ki, competition with [3H]-1,25(OH)2D3 for binding to the vitamin D receptor. As to the method:
Full-length recombinant rat receptor was expressed in E. coli BL21 (DE3) Codon Plus RIL cells and purified to homogeneity using two different column chromatography systems. The first system was a nickel affinity resin that utilizes the C-terminal histidine tag on this protein. The protein that was eluted from this resin was further purified using ion exchange chromatography (S-Sepharose Fast Flow). Aliquots of the purified protein were quick frozen in liquid nitrogen and stored at −80° C. until use. For use in binding assays, the protein was diluted in TEDK50 (50 mM Tris, 1.5 mM EDTA, pH7.4, 5 mM DTT, 150 mM KCl) with 0.1% Chaps detergent. The receptor protein and ligand concentration were optimized such that no more than 20% of the added radiolabeled ligand was bound to the receptor.
Radiolabeled and unlabeled ligands were added to 100 mcl of the diluted protein at a final ethanol concentration of ≦10%, mixed and incubated overnight on ice to reach binding equilibrium. The following day, 100 mcl of hydroxylapatite slurry (50%) was added to each tube and mixed at 10-minute intervals for 30 minutes. The hydroxylapaptite was collected by centrifugation and then washed three times with Tris-EDTA buffer (50 mM Tris, 1.5 mM EDTA, pH 7.4) containing 0.5% Titron X-100. […] Total binding was determined from the tubes containing only radiolabeled ligand.

For `C=C1/C(=C\C=C2/CCC[C@]3(C)[C@@H]([C@H](C)CCCC(C)(C)O)CC[C@@H]23)C[C@@H](O)C[C@@H]1O` [1,25(OH)2D3, 1α,25-dihydroxyvitamin D3, reference compound], the EC50 – broadly, the concentration that produces a half-maximal response – stood at 6.2 nM in assay [1] and 0.22 nM in assay [2]. Further, the “serum calcium levels (bone calcium mobilization)” value in assay [3] (all dosages tested (FIG. 4)) is given as “increased serum calcium levels”. The intestinal calcium transport entry in assay [4] (780 pmol/day ip for 4 days) is on record as “promotes a significant increase”.

Consider `C=C1[C@H](O)CC(=C/C=C2\CCC[C@]3(C)C(=C(C)C)CCC23)C[C@H]1O` (stereo partly drawn) [VIT-I, 2-methylene-19-nor-1α-hydroxy-17-ene-homopregnacalciferol], for which the Ki – broadly, a dissociation constant, usually derived from enzyme kinetics or from competition with a known ligand – in assay [5] was determined as 0.19 nM. In addition, the EC50 came to 13 nM in assay [1] (Homo sapiens, HL-60, 96 h) and 6 nM in assay [2]. Moreover, the “mobilization of bone calcium (serum calcium)” value is reported as “did not result in mobilization of bone calcium” in assay [3] (780 pmol/day ip for 4 consecutive days), “without any substantial effect” in assay [3] (2340 pmol/day ip for 4 consecutive days) and “without any substantial effect” in assay [3] (7020 pmol/day ip for 4 consecutive days). The intestinal calcium transport entry in assay [4] (780 pmol/day ip for 4 days), in assay [4] (2340 pmol/day ip for 4 days) and in assay [4] (7020 pmol/day ip for 4 days) was “does not promote intestinal calcium transport” each time.

The values above are taken from US7704982B2, “2-methylene-19-nor-1α-hydroxy-17-ene-homopregnacalciferol and its uses” (Wisconsin Alumni Research Foundation, priority 2004, dated 2010).
